# Results: US20220211681A1, “COMPOSITIONS AND METHODS FOR PREVENTING INFLAMMATORY CONDITIONS” (Trustees of Tufts College, priority 2019, published 2022)
# Experiments:
# calprotectin = experiment: Fecal calprotectin by Mouse S100A8/S100A9 Heterodimer DuoSet ELISA; format: in vivo, FVB mice; conditions: vs obese control
# From the text: (§1) Frozen fecal samples obtained in the colon upon euthanasia and then measured by Mouse S100A8/S100A9 Heterodimer DuoSet ELISA according to manufacturer's instructions (R&D Systems, Minneapolis, Minn.) and normalized by protein concentrations. Data are shown as the mean±SE, Different superscript letters in the bar charts indicate significant differences (p<0.05) by one-way analysis of variance (ANOVA) with Tukey's test.
# (§2) Determination of pro-inflammatory cytokines in plasma and calprotectin in feces: Plasma samples were then used for determination IL-1β, IL-6, and TNT-α concentrations by V-PLEX Proinflammatory Panel 1 (mouse) Kit on a chemiluminescence platform (MesoScale Discovery (MSD), Rockville, Md., USA) according to the manufacturer's instructions. For fecal calprotectin measures, frozen fecal samples obtained in the colon upon euthanasia were lysed in ice-cold PBS containing 1% BSA, 0.05% Tween20 and protease inhibitor. Protein concentrations were determined using the BCA method. Fecal calprotectin levels were measured by Mouse S100A8/S100A9 Heterodimer DuoSet ELISA according to manufacturer's instructions (R&D Systems, Minneapolis, Minn.) and normalized by protein concentrations.
# β-catenin = experiment: Western blot of nuclear β-catenin in colonic mucosa (Wnt signaling); format: in vivo, FVB mice; conditions: colonic mucosa nuclear fraction, p<0.03
# From the text: (§3) Each lane contained colonic mucosa collected from two individual mice that were pooled for immunoblot analysis (n=6). Data are representative of two independent experiments. Band intensity was normalized to Lamin B1 (nuclear fraction) or β-actin (whole tissue lysate) and measured by Quantity One 1-D Analysis Software (Bio-Rad). Data are shown as the mean±SE. Multiple comparisons with Hochberg method were employed to control the False Discovery Rate. Different superscript letters in the bar charts indicate significant differences (p<0.05) by one-way analysis of variance (ANOVA) with Tukey's test.
# (§4) Western blot analyses: The nuclear and cytoplasmic fractions were prepared using the Nuclear Extraction Kit (Abeam) according to the manufacturer's instructions and subjected to Western blot analysis. Protein concentrations were determined using the BCA method. Briefly, equal amount of proteins (50 μg) were resolved over 4-12% SDS-polyacrylamide gel electrophoresis and transferred to nitrocellulose membranes. […] Band intensity was normalized to Lamin B1 (nuclear fraction) and measured by Quantity One 1-D Analysis Software (Bio-Rad, Hercules, Calif., USA).
# IL-6 = experiment: Plasma IL-6 by V-PLEX Proinflammatory Panel 1 (mouse) Kit; format: in vivo, FVB mice; conditions: vs obese control; combination p=0.07
# From the text: as §1, §2
# PI3K = experiment: Western blot of p-PI3K/PI3K in colonic mucosa; format: in vivo, FVB mice
# From the text: as §3, §4
# colonic tumors = experiment: Colonic tumorigenesis in HFD-fed, AOM-treated FVB mice; format: in vivo
# From the text: Animals, diet and dosage information: The animal protocol was approved by the Institutional Animal Care and Use Committee of Tufts University (42015-155). Male FVB mice (4 weeks old) were obtained from the Jackson Laboratory (Bar Harbor, Me., USA), and were given free access to food (AIN-93G) and water for one week. The high-fat diet (HFD, D12450B) and low-fat diet (LFD, D12492) contained 60% and 10% of their calories as lard, respectively (Research Diets, diet details: Supplementary Tables 1, 2). […] One week after the sixth AOM injection, mice were randomized to receive 1 of 5 experimental diets: 1) LFD control, 2) […], 3) HFD containing 0.2% CUR (wt %), […], as pyridoxine HO), and 5) HFD containing both agents […]. There were 21 mice in each group. Body composition was determined by Echo-900 MRI (Houston, Tex., USA) at 21 weeks after arrival. All mice were sacrificed by isoflurane asphyxiation at 22 weeks after arrival. The liver and spleen were collected and weighed.
# The dose of CUR (0.2 wt %) used in this study is equivalent to approximately 1 g/day for human dietary intake in a 60 kg adult based on equivalent surface area dosage conversion method^(30). The dose of B6 used is at 4-times the basal requirement (supplemented level) for mice. […] The colons were excised, opened longitudinally, rinsed with ice cold PBS containing protease and phosphatase inhibitors (pH 7.4) and carefully inspected under a dissection microscope. The number and size of tumors in the colons were recorded. The sizes of tumors were determined by the following formula: tumor volume (mm^3)=L×W×[(L+W)/2], where L is the length and W is the width of the tumors. Tumors and one 2-3 mm length piece of mid-colon from each mouse were fixed in 10% buffered formalin (pH 7.4) for 24 h for further histopathologic and immunohistochemical (IHC) analysis. The opened colon, spread out on a glass plate sitting atop crushed ice, was then gently scraped using glass microscope slides and the mucosa thus obtained was stored at −80° C. for future analyses. The pathology of the colonic tumors was characterized by a rodent histopathologist at the Harvard Rodent Histopathology Core (Boston, Mass., USA) who was blinded to the diet groups, and the tumors were graded as either non-neoplastic, adenomas or invasive cancers. The tumor data reported below includes only those confirmed to be either adenomas or cancers.
# Statistical analyses: Data are presented as means±standard error (SE) for the indicated number of independently performed experiments. All statistical analyses were performed using SAS Version 9.3 (SAS Institute, Cary, N.C., USA). […] The tumor incidence was statistically calculated using the chi-square test. […]
compound,measurement,setting,value
"Cc1ncc(CO)c(CO)c1O.Cl [B6, pyridoxine hydrochloride]",Suppression of fecal calprotectin (in words),calprotectin,did not cause a significant suppression
same,Level of nuclear β-catenin in comparison to the obese control (in words),β-catenin,reduced level of nuclear β-catenin
same,Plasma IL-6 level (in words),IL-6,non-significant reduction
same,Suppression of PI3K activation (in words),PI3K,did not cause a significant suppression
same,Tumor incidence,"colonic tumors; HFD-fed, AOM-treated FVB mice, agent in diet",59%
same,Tumor multiplicity (Tumors per mouse),"colonic tumors; HFD-fed, AOM-treated FVB mice, agent in diet (CUR 0.2% w/w, B6 24 mg/kg), mean ± SE",0.95 ± 0.22^ab
same,"Tumor burden (Total volume of tumors per mouse, mm^3)","colonic tumors; HFD-fed, AOM-treated FVB mice, agent in diet, mean ± SE",17.19 ± 7.38^ab mm^3
same,Suppression of colorectal tumorigenesis (in words),colonic tumors; vs HFD obese control,neither CUR nor B6 alone was sufficient to suppress colorectal tumorigenesis
